In ChEMBL document CHEMBL1201862, “PubChem BioAssay data set” (2004):
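Exposure lasted 48 hours, with cells grown in 96-well plates and compounds tested at five concentrations. The concentration for 50% growth inhibition is given as GI50.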 Active and inactive are the calls of the source. Cut-off read from the data, not from the text of the source: active = GI50 up to about 1.1 µM and inactive = higher.

How the values were obtained:
Assay in all cases: NCI-60 cell line screen, 48 h
HOP-62 = tested on: HOP-62
SF-268 = tested on: SF-268
MOLT-4 = tested on: MOLT-4
HOP-92 = tested on: HOP-92
BT-549 = tested on: BT-549
KM12 = tested on: KM12
HCC 2998 = tested on: HCC 2998
UACC-257 = tested on: UACC-257
HCT-15 = tested on: HCT-15
RPMI-8226 = tested on: RPMI-8226
SK-MEL-2 = tested on: SK-MEL-2
MDA-MB-435 = tested on: MDA-MB-435
Hs-578T = tested on: Hs-578T
U-251 = tested on: U-251
LOX IMVI = tested on: LOX IMVI
NCI-H226 = tested on: NCI-H226
SW-620 = tested on: SW-620
786-0 = tested on: 786-0
SK-MEL-5 = tested on: SK-MEL-5
NCI/ADR-RES = tested on: NCI/ADR-RES
MDA-N = tested on: MDA-N
DU-145 = tested on: DU-145
SNB-75 = tested on: SNB-75
SN12C = tested on: SN12C
NCI-H23 = tested on: NCI-H23
MCF7 = tested on: MCF7
UACC-62 = tested on: UACC-62
TK-10 = tested on: TK-10
OVCAR-4 = tested on: OVCAR-4
OVCAR-5 = tested on: OVCAR-5
HCT-116 = tested on: HCT-116
UO-31 = tested on: UO-31
IGROV-1 = tested on: IGROV-1
SF-539 = tested on: SF-539
COLO 205 = tested on: COLO 205
ACHN = tested on: ACHN
CAKI-1 = tested on: CAKI-1
K562 = tested on: K562
A498 = tested on: A498
M14 = tested on: M14
RXF 393 = tested on: RXF 393
PC-3 = tested on: PC-3
SK-OV-3 = tested on: SK-OV-3
HL-60 = tested on: HL-60
HT-29 = tested on: HT-29
EKVX = tested on: EKVX
NCI-H460 = tested on: NCI-H460
MDA-MB-231 = tested on: MDA-MB-231
OVCAR-8 = tested on: OVCAR-8
SR = tested on: SR
SF-295 = tested on: SF-295
Malme-3M = tested on: Malme-3M
OVCAR-3 = tested on: OVCAR-3
SK-MEL-28 = tested on: SK-MEL-28
A549 = tested on: A549
T47D = tested on: T47D
SNB-19 = tested on: SNB-19
NCI-H522 = tested on: NCI-H522
CCRF-CEM = tested on: CCRF-CEM

COC(=O)C1=C(O)C(C(=O)OC)[C@]2(O)[C@H](C(=O)OC)[C@H]1C[C@@H](c1ccc(C(F)(F)F)cc1)[C@H]2C(=O)OC (some centres not stated)
GI50 (HOP-62): 6.87 µM (inactive) | GI50 (SF-268): 4.47 µM (inactive) | GI50 (MOLT-4): 2.07 µM (inactive) | GI50 (HOP-92): 5.27 µM (inactive) | GI50 (BT-549): 3.25 µM (inactive) | GI50 (KM12): 5.37 µM (inactive) | GI50 (HCC 2998): 3.47 µM (inactive) | GI50 (UACC-257): 4.6 µM (inactive) | GI50 (HCT-15): 2.82 µM | GI50 (RPMI-8226): 2.51 µM (inactive) | GI50 (SK-MEL-2): 2.79 µM (inactive) | GI50 (MDA-MB-435): 3.36 µM (inactive) | GI50 (Hs-578T): 4.43 µM (inactive) | GI50 (U-251): 2.41 µM (inactive) | GI50 (LOX IMVI): 2.45 µM (inactive) | GI50 (NCI-H226): 1.33 µM (inactive) | GI50 (SW-620): 2.76 µM (inactive) | GI50 (786-0): 3.44 µM (inactive) | GI50 (SK-MEL-5): 2.49 µM (inactive) | GI50 (NCI/ADR-RES): 2.33 µM (inactive) | GI50 (MDA-N): 3.27 µM (inactive) | GI50 (DU-145): 4.24 µM (inactive) | GI50 (SNB-75): 4.13 µM (inactive) | GI50 (SN12C): 4.47 µM (inactive) | GI50 (NCI-H23): 3.58 µM (inactive) | GI50 (MCF7): 3.5 µM (inactive) | GI50 (UACC-62): 3.87 µM (inactive) | GI50 (TK-10): 4.73 µM (inactive) | GI50 (OVCAR-4): 5.55 µM (inactive) | GI50 (OVCAR-5): 3.63 µM (inactive) | GI50 (HCT-116): 2.54 µM (inactive) | GI50 (UO-31): 2.84 µM (inactive) | GI50 (IGROV-1): 5.15 µM (inactive) | GI50 (SF-539): 1.59 µM (inactive) | GI50 (COLO 205): 3.18 µM (inactive) | GI50 (ACHN): 3.46 µM (inactive) | GI50 (CAKI-1): 3.34 µM (inactive) | GI50 (K562): 2.62 µM (inactive) | GI50 (A498): 3.37 µM (inactive) | GI50 (M14): 3.81 µM (inactive) | GI50 (RXF 393): 2.17 µM (inactive) | GI50 (PC-3): 3.48 µM (inactive) | GI50 (SK-OV-3): 6.35 µM (inactive) | GI50 (HL-60): 5.48 µM (inactive) | GI50 (HT-29): 4.68 µM (inactive) | GI50 (EKVX): 10.6 µM (inactive) | GI50 (NCI-H460): 3.34 µM (inactive) | GI50 (MDA-MB-231): 4.22 µM (inactive) | GI50 (OVCAR-8): 2.85 µM (inactive) | GI50 (SR): 2.56 µM (inactive) | GI50 (SF-295): 4 µM (inactive) | GI50 (Malme-3M): 3.78 µM (inactive) | GI50 (OVCAR-3): 3.78 µM (inactive) | GI50 (SK-MEL-28): 4.89 µM (inactive) | GI50 (A549): 3.74 µM (inactive) | GI50 (T47D): 3.44 µM (inactive) | GI50 (SNB-19): 3.87 µM (inactive)

COC12C=CC(C=C1C#N)CC2.COC12C=CC(CC1)CC2=O (configuration not stated)
GI50 (HOP-62): > 100 µM (inactive) | GI50 (SF-268): > 100 µM (inactive) | GI50 (MOLT-4): > 100 µM (inactive) | GI50 (HOP-92): > 100 µM (inactive) | GI50 (BT-549): > 100 µM (inactive) | GI50 (KM12): > 100 µM (inactive) | GI50 (HCC 2998): > 100 µM (inactive) | GI50 (UACC-257): > 100 µM (inactive) | GI50 (HCT-15): > 100 µM | GI50 (RPMI-8226): > 100 µM (inactive) | GI50 (SK-MEL-2): > 100 µM (inactive) | GI50 (MDA-MB-435): > 100 µM (inactive) | GI50 (Hs-578T): > 100 µM (inactive) | GI50 (U-251): > 100 µM (inactive) | GI50 (NCI-H226): > 100 µM (inactive) | GI50 (SW-620): > 100 µM (inactive) | GI50 (786-0): > 100 µM (inactive) | GI50 (SK-MEL-5): > 100 µM (inactive) | GI50 (NCI/ADR-RES): > 100 µM (inactive) | GI50 (MDA-N): > 100 µM (inactive) | GI50 (DU-145): > 100 µM (inactive) | GI50 (SNB-75): 67.8 µM (inactive) | GI50 (SN12C): > 100 µM (inactive) | GI50 (NCI-H23): > 100 µM (inactive) | GI50 (MCF7): > 100 µM (inactive) | GI50 (NCI-H522): > 100 µM (inactive) | GI50 (UACC-62): > 100 µM (inactive) | GI50 (TK-10): > 100 µM (inactive) | GI50 (OVCAR-4): > 100 µM (inactive) | GI50 (OVCAR-5): > 100 µM (inactive) | GI50 (HCT-116): > 100 µM (inactive) | GI50 (CCRF-CEM): > 100 µM (inactive) | GI50 (UO-31): > 100 µM (inactive) | GI50 (IGROV-1): > 100 µM (inactive) | GI50 (SF-539): > 100 µM (inactive) | GI50 (COLO 205): > 100 µM (inactive) | GI50 (ACHN): > 100 µM (inactive) | GI50 (CAKI-1): > 100 µM (inactive) | GI50 (K562): > 100 µM (inactive) | GI50 (A498): > 100 µM (inactive) | GI50 (M14): > 100 µM (inactive) | GI50 (RXF 393): > 100 µM (inactive) | GI50 (PC-3): > 100 µM (inactive) | GI50 (SK-OV-3): > 100 µM (inactive) | GI50 (HL-60): > 100 µM (inactive) | GI50 (HT-29): > 100 µM (inactive) | GI50 (EKVX): > 100 µM (inactive) | GI50 (NCI-H460): > 100 µM (inactive) | GI50 (MDA-MB-231): > 100 µM (inactive) | GI50 (OVCAR-8): > 100 µM (inactive) | GI50 (SR): > 100 µM (inactive) | GI50 (SF-295): > 100 µM (inactive) | GI50 (Malme-3M): > 100 µM (inactive) | GI50 (OVCAR-3): > 100 µM (inactive) | GI50 (SK-MEL-28): > 100 µM (inactive) | GI50 (A549): > 100 µM (inactive) | GI50 (T47D): > 100 µM (inactive) | GI50 (SNB-19): > 100 µM (inactive)

CCOC(=O)c1ccc(NC(=O)O/N=C(/Cl)CC)cc1
GI50 (HOP-62): 20.4 µM (inactive) | GI50 (SF-268): 19.2 µM (inactive) | GI50 (MOLT-4): 2 µM (inactive) | GI50 (HOP-92): 2.75 µM (inactive) | GI50 (BT-549): 19.2 µM (inactive) | GI50 (KM12): 18.4 µM (inactive) | GI50 (HCC 2998): 18.1 µM (inactive) | GI50 (UACC-257): 16.1 µM (inactive) | GI50 (HCT-15): 13.5 µM | GI50 (RPMI-8226): 1.99 µM (inactive) | GI50 (SK-MEL-2): 16.4 µM (inactive) | GI50 (MDA-MB-435): 17.7 µM (inactive) | GI50 (Hs-578T): 22.8 µM (inactive) | GI50 (U-251): 17.8 µM (inactive) | GI50 (NCI-H226): 20.9 µM (inactive) | GI50 (SW-620): 1.87 µM (inactive) | GI50 (786-0): 5.85 µM (inactive) | GI50 (SK-MEL-5): 16 µM (inactive) | GI50 (NCI/ADR-RES): 14 µM (inactive) | GI50 (MDA-N): 16.8 µM (inactive) | GI50 (DU-145): 17.4 µM (inactive) | GI50 (SNB-75): 13.6 µM (inactive) | GI50 (SN12C): 19.9 µM (inactive) | GI50 (NCI-H23): 17.4 µM (inactive) | GI50 (MCF7): 15 µM (inactive) | GI50 (NCI-H522): 2.77 µM (inactive) | GI50 (UACC-62): 21 µM (inactive) | GI50 (OVCAR-4): 5.21 µM (inactive) | GI50 (OVCAR-5): 18.2 µM (inactive) | GI50 (HCT-116): 8.99 µM (inactive) | GI50 (CCRF-CEM): 1.82 µM (inactive) | GI50 (UO-31): 17.5 µM (inactive) | GI50 (IGROV-1): 18.5 µM (inactive) | GI50 (SF-539): 17.6 µM (inactive) | GI50 (COLO 205): 2.41 µM (inactive) | GI50 (ACHN): 9.18 µM (inactive) | GI50 (CAKI-1): 4.57 µM (inactive) | GI50 (K562): 1.94 µM (inactive) | GI50 (A498): 15.7 µM (inactive) | GI50 (M14): 2.14 µM (inactive) | GI50 (RXF 393): 16.9 µM (inactive) | GI50 (PC-3): 18.8 µM (inactive) | GI50 (SK-OV-3): 17.9 µM (inactive) | GI50 (HL-60): 2.21 µM (inactive) | GI50 (HT-29): 18.4 µM (inactive) | GI50 (EKVX): 16.1 µM (inactive) | GI50 (NCI-H460): 19.5 µM (inactive) | GI50 (MDA-MB-231): 19.6 µM (inactive) | GI50 (OVCAR-8): 14.9 µM (inactive) | GI50 (SR): 3.57 µM (inactive) | GI50 (SF-295): 19.5 µM (inactive) | GI50 (Malme-3M): 4.56 µM (inactive) | GI50 (OVCAR-3): 1.83 µM (inactive) | GI50 (SK-MEL-28): 16.4 µM (inactive) | GI50 (A549): 24.8 µM (inactive) | GI50 (T47D): 7.73 µM (inactive) | GI50 (SNB-19): 21.3 µM (inactive)
